Data taken from patent publication US9751837B2, “Kinase inhibitors” (RESPIVERT LIMITED, priority 2014, dated 2017).
Read-outs that look alike come from different tables or passages of the source.

Columns and labels:
c-Src = c-Src (Homo sapiens (Human), UniProt P12931); assay: c-Src enzyme inhibition, Z-LYTE FRET; format: biochemical
Description: (§1) The enzyme inhibitory activities of compounds disclosed herein are determined by FRET using synthetic peptides labelled with both donor and acceptor fluorophores (Z-LYTE, Invitrogen Ltd., Paisley, UK).
The inhibitory activities of compounds of the invention against c-Src and Syk enzymes (Invitrogen), are evaluated in a similar fashion to that described hereinabove. The relevant enzyme (3000 ng/mL or 2000 ng/mL respectively, 2.5 μL) is incubated with the test compound (either 1 μg/mL, 0.1 μg/mL, 0.01 μg/mL, or 0.001 μg/mL, 2.5 μL each) for 2 hr at RT. The FRET peptides (8 μM. 2.5 μL), and appropriate ATP solutions (2.5 μL, 800 μM for c-Src, and 60 μM ATP for Syk) are then added to the enzymes/compound mixtures and the mixture incubated for 1 hr. Development reagent (protease, 5 μL) is added for 1 hr prior to detection in a fluorescence microplate reader (Varioskan® Flash, ThermoFisher Scientific).
(§2) In all cases, the site-specific protease cleaves non-phosphorylated peptide only and eliminates the FRET signal. Phosphorylation levels of each reaction are calculated using the ratio of coumarin emission (donor) over fluorescein emission (acceptor), for which high ratios indicate high phosphorylation and low ratios indicate low phosphorylation levels.

p38 MAPKα (MAPK14) = p38 MAPKα (MAPK14) (Homo sapiens (Human), UniProt Q16539); assay: p38 MAPKα enzyme inhibition (Method 2), Z-LYTE FRET; format: biochemical
Sequence of p38 MAPKα (MAPK14) (Q16539 whole entry): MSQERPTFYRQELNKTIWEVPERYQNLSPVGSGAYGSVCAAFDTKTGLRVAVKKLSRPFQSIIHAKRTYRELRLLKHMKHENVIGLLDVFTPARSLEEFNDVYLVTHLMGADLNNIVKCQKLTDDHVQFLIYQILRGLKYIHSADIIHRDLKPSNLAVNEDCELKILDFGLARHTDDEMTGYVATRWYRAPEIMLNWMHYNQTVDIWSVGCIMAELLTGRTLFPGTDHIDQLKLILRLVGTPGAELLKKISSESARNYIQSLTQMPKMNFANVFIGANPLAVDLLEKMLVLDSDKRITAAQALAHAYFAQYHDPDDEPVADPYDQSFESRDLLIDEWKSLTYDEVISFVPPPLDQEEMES
Description: as §1
The following two assay variants can be used for determination of p38 MAPKα inhibition.
The inhibitory activities of test compounds against the p38 MAPKα isoform (MAPK14: Invitrogen) are evaluated indirectly by determining the level of activation/phosphorylation of the down-stream molecule, MAPKAP-K2. The p38 MAPKα protein (80 ng/mL, 2.5 μL) is mixed with the test compound (2.5 μL of either 4 μg/mL, 0.4 μg/mL, 0.04 μg/mL or 0.004 μg/mL) for 2 hr at RT. […] The mixture is incubated for 1 hr at RT. Development reagent (protease, 5 μL) is added for 1 hr prior to detection in a fluorescence microplate reader (Varioskan® Flash, ThermoFisher Scientific). […]
as §2

LPS-stimulated rats = assay: Endotoxin-induced uveitis in rats (vi); format: in vivo, Lewis rats; conditions: rats treated with intravitreal endotoxin LPS
Description: Male, Lewis rats (6-8 weeks old, Charles River UK Limited) are housed in cages of 3 at 19-21° C. with a 12 h light/dark cycle (07:00/19:00) and fed a standard diet of rodent chow and water ad libitum. Non-fasted rats are weighed, individually identified on the tail with a permanent marker, and receive a single intravitreal administration into the right vitreous humor (5 μL dose volume) of 100 ng/animal of LPS (Escherichia coli 0111:B4 prepared in PBS, Sigma Aldrich, UK) using a 32-gauge needle. Untreated rats are injected with PBS. Test compound or vehicle (4% polyoxyl 40 stearate, 4% mannitol in PBS (pH 7.4)) are administered by the topical route onto the right eye (10 μL) of animals 1 hour prior to LPS, at the time of LPS administration, and 1, 2 and 4 hours post LPS administration. Before administration, the solution to be administered is sonicated to ensure a clear solution. 6 hours after LPS dosing, animals are euthanized by overdose with pentobarbitone (via cardiac puncture). Immediately after euthanasia, 10 μL of aqueous humor is collected from the right eye of the rats by puncture of the anterior chamber using a 32 gauge needle under a surgical microscope. The aqueous humor is diluted in 20 μL of PBS and total cell counts are measured immediately using a Countess automated cell counter (Invitrogen). […]

[1] = format: in vivo; conditions: four daily instillations, 0.1 and 1.0 mg/mL, rabbits
[2] = system: Salmonella typhimurium, strains TA1535, TA1537, TA98 and TA100; assay: Bacterial reverse mutation screen, Salmonella typhimurium
[3] = Stability of pharmaceutical formulations (HPLC); format: physicochemical; conditions: 1 mg/mL Na and HCl salts in 10 mM pH 7.2 phosphate buffer, 4.5% mannitol, 3% polyoxyl 40 stearate; 5° C.
Description: The samples were sonicated to achieve clear solutions having the following properties: Osmolality (mOsm/kg): 310 (Na), 314 (HCl); pH: 7.00 (Na), 7.05 (HCl). 0.5 mL of the stock solutions were diluted to 1 mL with 20% DMSO in water & injected for purity analysis by HPLC. The remaining stock solutions were then split into aliquots of 0.5 mL in HPLC vials, and stored at various conditions in duplicate. Samples were stored at 5 and 25° C., before being analysed by HPLC at 1, 2 and 4 weeks. Separate samples were stored at 40° C. and analysed at 4 weeks.

[4] = system: Escherichia coli, WP2 uvrA; assay: Bacterial reverse mutation screen, Escherichia coli; conditions: presence or absence of S-9 mix, plate incorporation
Syk = Syk (Homo sapiens (Human), UniProt P43405); assay: Syk enzyme inhibition, Z-LYTE FRET; format: biochemical
Description: as §1
The relevant enzyme (3000 ng/mL or 2000 ng/mL respectively, 2.5 μL) is incubated with the test compound (either 1 μg/mL, 0.1 μg/mL, 0.01 μg/mL, or 0.001 μg/mL, 2.5 μL each) for 2 hr at RT. […] Development reagent (protease, 5 μL) is added for 1 hr prior to detection in a fluorescence microplate reader (Varioskan® Flash, ThermoFisher Scientific).
as §2

[5] = Pharmacokinetics and total colon distribution after single oral administration; format: in vivo, male C57BL/6 mice; conditions: mice, oral 5 mg/kg; for total colon level: measured cpd = dosed cpd (1, 19, 47 as Na salt, 44 as NH4+ salt); for Mean blood concentration: measured cpd = dosed cpd (19, 47 as Na salt)
Description: Studies were conducted by Sai Life Sciences (Hinjewadi, Pune, India) to investigate the systemic pharmacokinetics and total colon tissue distribution of compounds of the invention. In particular, pharmacokinetic studies were carried out in male C57BL/6 mice following a single oral administration of the compound.

[6] = Hydrolytic stability study (DMSO/water 3:1, 60° C.); format: physicochemical
Description: Chemical stability of compounds of the invention was assessed in a mixture of DMSO and water (3:1) at a test compound concentration of 1 mg/mL.
General HPLC Procedure • Agilent, Waters X-Select C18, 2.5 μm, 4.6×30 mm column, 4 min method, 5-95% MeCN/water (0.1% formic acid). Flow rate 2.5 mL/min. Column Oven Temperature 40° C. Detection 254 nm.
Sample Preparation • A 1.0 mg sample of test compound was dissolved in 750 μL of DMSO. Water (250 μL) was added slowly, ensuring no precipitation occurred.
Recording Stability • A 50 μL aliquot of the test solution was removed and analysed in duplicate by 5 μL HPLC injections. The peak area for the test compound was recorded following manual integration of the corresponding UV trace. • The test solution was heated to 60° C., with stirring, and 50 μL aliquots removed for HPLC analysis at 5 and 24 h timepoints.

Sequence of c-Src (P12931 whole entry, looked up): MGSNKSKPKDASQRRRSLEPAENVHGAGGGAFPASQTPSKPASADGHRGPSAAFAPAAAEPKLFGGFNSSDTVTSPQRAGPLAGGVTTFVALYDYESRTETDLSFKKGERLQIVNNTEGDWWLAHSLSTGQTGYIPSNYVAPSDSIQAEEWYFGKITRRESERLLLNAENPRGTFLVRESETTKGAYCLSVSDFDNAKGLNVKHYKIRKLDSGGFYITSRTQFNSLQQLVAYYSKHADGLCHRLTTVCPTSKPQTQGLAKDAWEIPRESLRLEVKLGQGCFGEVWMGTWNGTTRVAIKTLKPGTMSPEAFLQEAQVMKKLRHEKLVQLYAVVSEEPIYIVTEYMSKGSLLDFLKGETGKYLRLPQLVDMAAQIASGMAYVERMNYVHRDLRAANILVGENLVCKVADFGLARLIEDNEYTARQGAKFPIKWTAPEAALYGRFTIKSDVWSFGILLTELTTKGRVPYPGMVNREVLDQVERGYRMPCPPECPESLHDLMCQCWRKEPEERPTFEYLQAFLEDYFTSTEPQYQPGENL

`COc1c(NC(=O)Nc2ccc(Oc3ccnc(Nc4ccc(C(=O)NCCN5CCOCC5)cc4)c3)c3ccccc23)cc(C(C)(C)C)cc1NS(C)(=O)=O` [17(u), 4-[[4-[[4-[[5-tert-butyl-3-(methanesulfonamido)-2-methoxy-phenyl]carbamoylamino]-1-naphthyl]oxy]-2-pyridyl]amino]-N-(2-morpholinoethyl)benzamide] showed an IC50 (c-Src) of 32 nM and an IC50 (p38 MAPKα (MAPK14)) of 66 nM.
With `COc1cc(Nc2cc(Oc3ccc(NC(=O)Nc4cc(C(C)(C)C)cc(NS(C)(=O)=O)c4OC)c4ccccc34)ccn2)ccc1C(=O)O` [Example 1, 4-((4-((4-(3-(5-(tert-Butyl)-2-methoxy-3-(methylsulfonamido)phenyl)ureido)naphthalen-1-yl)oxy)pyridin-2-yl)amino)-2-methoxybenzoic acid] the “cellular infiltration and cytokine IL-1β levels in anterior and posterior segments of the eyes” value (LPS-stimulated rats) was “significantly and dose-dependently reduced”, the “local tolerability of the formulations (ocular)” value ([1]; Phase 1: one treatment day) was “acceptable” and the “local tolerability of the formulations (ocular)” value ([1]; Phase 2: three consecutive treatment days) was “acceptable”. For the same molecule, the “mutagenic effects (revertant numbers)” value ([2]; TA1535, TA1537, TA98, TA100, presence or absence of S-9 mix, plate incorporation) was “absence of any mutagenic effects”, the “dose with reduction in the mean colony count (toxicity to the bacteria)” value ([2]; TA1535, presence of S-9 mix) was 1500 μg/plate and the “limit of solubility in the mutation test” value ([2]; all strains, presence and absence of S-9 mix, plate incorporation) was 1500 μg/plate. For the same molecule, the stability in solution [3] was “stable” and the “mutagenic effects (revertant numbers)” value [4] was “absence of any mutagenic effects”.
`COc1cc(Nc2cc(Oc3ccc(NC(=O)Nc4cc(C(C)(C)C)cc(NS(C)(=O)=O)c4OC)c4ccccc34)ccn2)ccc1C(=O)NCCOCCOCCOP(=O)(O)O` [Example 19, 2-(2-(2-(4-((4-((4-(3-(5-(tert-Butyl)-2-methoxy-3-(methylsulfonamido)phenyl)ureido)naphthalen-1-yl)oxy)pyridin-2-yl)amino)-2-methoxybenzamido)ethoxy)ethoxy)ethyl dihydrogen phosphate] showed an IC50 (c-Src) of 22 nM, an IC50 (Syk) of 8 nM and a total colon level ([5]; 0.5 h) of 0.0 ng/g. The Mean blood concentration ([5]; 0.5 h) was 0.0 ng/mL, the total colon level ([5]; 1 h) was 0.0 ng/g and the Mean blood concentration ([5]; 1 h) was 0.0 ng/mL. For the same molecule, the total colon level ([5]; 2 h) was 0.0 ng/g, the Mean blood concentration ([5]; 2 h) was 0.0 ng/mL and the total colon level ([5]; 4 h) was 0.0 ng/g. For the same molecule, the Mean blood concentration ([5]; 4 h) was 0.0 ng/mL, the total colon level ([5]; 6 h) was 0.0 ng/g and the Mean blood concentration ([5]; 6 h) was 0.0 ng/mL. The total colon level ([5]; 8 h) was 0.0 ng/g, the Mean blood concentration ([5]; 8 h) was 0.0 ng/mL and the total colon level ([5]; 12 h) was 0.0 ng/g. It also gave a Mean blood concentration ([5]; 12 h) of 0.0 ng/mL, a total colon level ([5]; 24 h) of 0.0 ng/g and a Mean blood concentration ([5]; 24 h) of 0.0 ng/mL. For the same molecule, the IC50 (p38 MAPKα (MAPK14)) was 8 nM.
For `C#Cc1cc(Nc2nccc(Oc3ccc(NC(=O)Nc4cc(C(C)C)nn4-c4ccc(C)cc4)c4ccccc34)n2)cc(C(=O)NCCN2CCOCC2)c1` [Reference Compound B, 3-ethynyl-5-((4-((4-(3-(3-isopropyl-1-(p-tolyl)-1H-pyrazol-5-yl)ureido)naphthalen-1-yl)oxy)pyrimidin-2-yl)amino)-N-(2-morpholinoethyl)benzamide], the “decomposition under the conditions of the hydrolytic stability experiment” value [6] was “substantial decomposition”.
